Values of other authors in US8524749B2, “Controlled release compositions of tizanidine” (ALZA Corporation, priority 2007, dated 2013).

Details: doses of 0.5-0.7 g/kg alcohol; comparison data

Peak impairment in Power of Attention, decrement compared to baseline: about 150 msec
Structure (SMILES): CCO [alcohol]
